According to patent publication USRE48461E1, “Modulation of androgen receptor expression” (Ionis Pharmaceuticals, Inc., priority 2012, dated 2021):
Oligonucleotides are written 5' to 3', each unit as a sugar letter and its base; * is a phosphorothioate linkage, no mark a phosphodiester; rarer units and linkages stand in square brackets, end groups in braces. Plain capitals give the bases only. k = constrained ethyl (cEt); [5mC] = 5-methylcytosine; d = 2'-deoxy (DNA)

Columns and labels:
Format in all cases: cell-based, human
full-length AR = test: Western blot of full-length AR in MDV3100-resistant C4-2B cells; conditions: for levels of full-length AR (Western analysis): C4-2B MR cells (Example 16)
Procedure: (§1) ISIS 549372, ISIS 549434, and ISIS 554221 at 1 μM concentration of antisense oligonucleotide were each added to the culture media at 1 μM concentration for free uptake by the cells. After a treatment period of 2 days, cells were harvested in RIPA buffer containing protease inhibitors. The presence of bands for full-length AR, as well as the variant form, AR-V7, was detected by western blot using AR antibody (N-20, Santa Cruz).
(§2) Western analysis of full-length AR, as well as the AR-V7 variant, was also conducted in a manner similar to the assay described above.

AR-V7 = test: Western blot of AR-V7 in MDV3100-resistant C4-2B cells; conditions: for levels of AR-V7 (Western analysis): C4-2B MR cells (Example 16)
Procedure: as §1, §2

total AR mRNA = test: Total (full-length) AR mRNA in C4-2B MR cells, free uptake; conditions: C4-2B MR cells, 0.04-5.00 μM free uptake, 24 hrs
Procedure: Cells were plated at a density of 40,000 cells per well in 96-well plates and cultured in RPMI1640 medium with 10% fetal bovine serum. […] ISIS 549372, ISIS 549458, ISIS 549434, and ISIS 554221 were each added at 0.04 μM, 0.20 μM, 1.00 μM, and 5.00 μM concentrations of antisense oligonucleotide to culture media for free uptake by the cells. […] After a treatment period of 24 hrs, total AR mRNA levels were measured by quantitative real-time PCR using primer probe set RTS3559.

KLK3 mRNA = KLK3 mRNA (AR target gene) in C4-2B MR cells; conditions: C4-2B MR cells, 0.04-5.00 μM
KLK2 mRNA = KLK2 mRNA (AR target gene) in C4-2B MR cells; conditions: C4-2B MR cells, 0.04-5.00 μM
C4-2B MR cells = test: Proliferation of MDV3100-resistant C4-2B cells (CellTiter 96); conditions: 0.04-5.00 μM, 6 days
Procedure: ISIS 549372, ISIS 549434, ISIS 549458, and ISIS 554221 were each added to the culture media at 0.04 μM, 0.20 μM, 1.00 μM, and 5.00 μM concentration of antisense oligonucleotide. ISIS 347526 was included as a negative control. After a treatment period of 6 days, the proliferative capacity of the cancer cells was measured with using CellTiter 96® AQueous One Solution Cell Proliferation kit (Promega), following the manufacturer's instructions. Results are presented in Table 41 as percent inhibition of proliferation, relative to non-treated cells.

C4-2B cells [1] = test: C4-2B cell proliferation, ASO in combination with MDV3100 (Example 19); conditions: for Percent inhibition of C4-2B cell proliferation with 0.1 μM ASO / Percent inhibition of C4-2B cell proliferation with 0.2 μM ASO / reduced cell proliferation, ASO alone: 6 days; for reduced cell proliferation, ASO alone: Table 46 (0.1 μM ASO)
Procedure: C4-2B cells were plated at 1,500 cells per well. […] ISIS 347526 was included as a negative control. […] After a treatment period of 6 days, the proliferative capacity of the cancer cells was measured with CellTiter 96® AQueous One Solution Cell Proliferation kit (Promega), following the manufacturer's instructions. Results are presented in Table 46 as percent inhibition of proliferation, relative to non-treated cells. Treatment of the cells with ISIS 549372 or ISIS 549458 reduced proliferation of the cells more extensively than treatment with ISIS 554221.

AR full-length mRNA = AR full-length mRNA in CWR22-RV1 cells (RNAiMax, RTS3559); conditions: 6 days
Procedure: (§3) CWR22-RV1 cells were plated and transfected using RNAiMax reagent (Life Technologies) with ISIS oligonucleotides at 1.7 nM, 5.0 nM, 16.7 nM, or 50 nM concentrations. ISIS 347526 was included as a negative control. After a treatment period of 6 days, the target reduction and proliferative capacity of the cancer cells was measured.
(§4) Antisense inhibition of AR full-length mRNA was measured with the RTS3559 primer probe set. The results are presented in Table 63 as percent inhibition relative to non-treated cells. The reduction in V7 splice variant of the AR mRNA was also measured by RT-PCR using SYBR Green staining (Hu, R. et al., Cancer Res. 2009. 69: 16-22). The results are presented in Table 64, as percent reduction, relative to non-treated cells. Cell proliferation was measured with CellTiter 96® AQueous One Solution Cell Proliferation kit (Promega), following the manufacturer's instructions. Results are presented in Table 65 as percent inhibition of proliferation, relative to non-treated cells.

[2] = test system: V7 splice variant of the AR mRNA; test: AR V7 splice variant mRNA in CWR22-RV1 cells (RT-PCR SYBR Green); conditions: RNAiMax, 6 days
Procedure: as §3, §4

CWR22-RV1 cells = test: CWR22-RV1 cell proliferation (CellTiter 96); conditions: RNAiMax, 6 days
Procedure: as §3, §4

AR mRNA [3] = test: AR mRNA in C4-2B cells by free uptake (hAR_LTS00943); conditions: 24 hrs; for Percent inhibition of AR full-length mRNA: free uptake
Procedure: (§5) Cells were plated at a concentration of 1,000 cells/well in 96-well plates to measure cell proliferation, and at 4,000 cells/well to measure target reduction. ISIS 549458, ISIS 549372, ISIS 549434, and ISIS 554221 were added individually at 0.04 μM, 0.20 μM, 1.00 μM, or 5.00 μM. After an incubation period of 24 hrs, mRNA levels were measured using hAR_LTS00943.

C4-2B cells [4] = test: C4-2B cell proliferation by free uptake (MTT); conditions: day 6
Procedure: as §5
On day 6, cells plated for measuring proliferation were incubated with MTT reagent until the development of color. Color intensity was measured using a spectrophotometer at 490 nm.

LMR20 cells = test: Proliferation of MDV3100-resistant LMR20 cells (MTT; with R1881 or DHT); conditions: 5 days
Procedure: LMR20 cells were plated at 1,500 cells per well in phenol red-free medium with charcoal-stripped fetal bovine serum (CSS), to remove any androgens from the medium (Life Technologies). […] The synthetic androgen agonist, R1881, (Takeda, A. N. et al., Mol. Pharmacol. 2007. 71: 473-82) was added on day 1 at 1 nM dose to a set of cells also treated with each of the antisense oligonucleotides. DHT was added on day 1 at a dose of 10 nM to another set of cells also treated with each of the antisense oligonucleotides. […] After a treatment period of 5 days, the proliferative ability of the cancer cells was measured by the standard MTT assay. Results are presented in Table 42 as percent inhibition of proliferation, relative to non-treated cells.

AR mRNA [5] = test: AR mRNA levels in LMR20 cells (with/without DHT or R1881); conditions: with or without DHT/R1881
Procedure: LMR20 cells were plated at 1,500 cells per well in phenol red-free medium with CSS.

[6] = C4-2B MR cells, 1 μM ASO free uptake, 2 days (Example 15)

Sequence	levels of full-length AR (Western analysis) (full-length AR)	levels of AR-V7 (Western analysis) (AR-V7)	Percent inhibition of C4-2B cell proliferation with 0.1 μM ASO (C4-2B cells [1]; 0.1 μM ASO + MDV3100 1 μM) [%]	Percent inhibition of C4-2B cell proliferation with 0.1 μM ASO (C4-2B cells [1]; 0.1 μM ASO + MDV3100 […]) [%]	Percent inhibition of C4-2B cell proliferation with 0.1 μM ASO (C4-2B cells [1]; 0.1 μM ASO, MDV3100 0 μM) [%]	Percent inhibition of C4-2B cell proliferation with 0.2 μM ASO (C4-2B cells [1]; 0.2 μM ASO + MDV3100 1 μM) [%]	Percent inhibition of C4-2B cell proliferation with 0.2 μM ASO (C4-2B cells [1]; 0.2 μM ASO + MDV3100 […]) [%]	Percent inhibition of C4-2B cell proliferation with 0.2 μM ASO (C4-2B cells [1]; 0.2 μM ASO, MDV3100 0 μM) [%]	reduced cell proliferation, ASO alone (C4-2B cells [1]; C4-2B cells) [%]	Percent inhibition of AR full-length mRNA (AR full-length mRNA; dose 5.0 nM) [%]	Percent inhibition of AR full-length mRNA (AR full-length mRNA; dose 16.7 nM) [%]	Percent inhibition of AR full-length mRNA (AR full-length mRNA; dose 50.0 nM) [%]	Percent inhibition of AR splice variant, V7 ([2]; dose 5.0 nM) [%]	Percent inhibition of AR splice variant, V7 ([2]; dose 16.7 nM) [%]	Percent inhibition of AR splice variant, V7 ([2]; dose 50.0 nM) [%]	Percent inhibition of cell proliferation (CWR22-RV1 cells; dose 5.0 nM) [%]	Percent inhibition of cell proliferation (CWR22-RV1 cells; dose 16.7 nM) [%]	Percent inhibition of cell proliferation (CWR22-RV1 cells; dose 50.0 nM) [%]	Percent inhibition of AR full-length mRNA (AR mRNA [3]; dose 0.04 μM) [%]	Percent inhibition of AR full-length mRNA (AR mRNA [3]; dose 0.20 μM) [%]	further results
AAGTTGTAGTAGTCGC (kA*kA*kG*dT*dT*dG*dT*dA*dG*dT*dA*dG*dT*k[5mC]*kG*k[5mC]) [ISIS 549372, targets exon 1]	reduced levels of full-length AR and AR-V7	reduced levels of full-length AR and AR-V7	66	44	23	77	69	59	59	53	64	78	35	56	82	0	25	53	10	36	full-length AR (western blot) (full-length AR; [6]): reduced full-length AR and AR-V7 more extensively than treatment with either ISIS 554221 or ISIS 549434; AR-V7 (western blot) (AR-V7; [6]): reduced full-length AR and AR-V7 more extensively than treatment with either ISIS 554221 or ISIS 549434; total AR transcript levels (total AR mRNA): reduced total AR transcript levels in a dose dependent manner more extensively than treatment with ISIS 554221; AR target gene KLK3 mRNA levels (KLK3 mRNA): reduced target gene levels in a dose dependent manner more extensively than treatment with ISIS 554221; AR target gene KLK2 mRNA levels (KLK2 mRNA): reduced target gene levels in a dose dependent manner more extensively than treatment with ISIS 554221; proliferation of C4-2B MR cells (C4-2B MR cells): reduced proliferation of the cells in a dose dependent manner more extensively than treatment with ISIS 554221; synergy with MDV3100 (C4-2B cells [1]; C4-2B cells): synergistic with MDV3100; cell proliferation inhibited, combination (C4-2B cells [1]; C4-2B cells, 0.1 μM ASO in combination with […] MDV3100): 66%; inhibited cell proliferation, ASO alone (C4-2B cells [1]; C4-2B cells, ASO alone at 0.1 μM): 23%; prostate cancer cell proliferation, ASO in combination with MDV3100 (C4-2B cells [1]; C4-2B cells, versus equal molar ISIS 554221 + MDV3100): inhibited prostate cancer cell proliferation to a greater extent than an equal molar concentration of ISIS 554221 in combination of MDV3100; AR mRNA expression (AR mRNA [3]; free uptake 0.04-5.00 μM): inhibited AR mRNA expression more potently than ISIS 554221; Percent inhibition of AR full-length mRNA (AR mRNA [3]; dose 1.00 μM): 73%; Percent inhibition of AR full-length mRNA (AR mRNA [3]; dose 5.00 μM): 80%; Percent inhibition of cell proliferation (C4-2B cells [4]; dose 0.04 μM): 8%; Percent inhibition of cell proliferation (C4-2B cells [4]; dose 0.20 μM): 34%; Percent inhibition of cell proliferation (C4-2B cells [4]; dose 1.00 μM): 44%; Percent inhibition of cell proliferation (C4-2B cells [4]; dose 5.00 μM): 45%
ACCAAGTTTCTTCAGC (LNA gapmer, phosphorothioate backbone, further chemistry not given here) [ISIS 554221, 3-10-3 LNA gapmer, phosphorothioate backbone, targeted to exon 4 of AR; benchmark, reference compound]	reduced levels of full-length AR less extensively compared to ISIS 549372	did not reduce levels of AR-V7	59	29	9	67	45	23	23	41	67	72	1	7	35	11	27	47	0	0	Percent inhibition of LMR20 cell proliferation (LMR20 cells; CSS + DHT, ASO 0.04 μM): 0%; Percent inhibition of LMR20 cell proliferation (LMR20 cells; CSS + DHT, ASO 0.20 μM): 0%; Percent inhibition of LMR20 cell proliferation (LMR20 cells; CSS + DHT, ASO 1.0 μM): 10%; Percent inhibition of LMR20 cell proliferation (LMR20 cells; CSS + DHT, ASO 5.0 μM): 36%; Percent inhibition of LMR20 cell proliferation (LMR20 cells; CSS + R1881, ASO 0.04 μM): 1%; Percent inhibition of LMR20 cell proliferation (LMR20 cells; CSS + R1881, ASO 0.20 μM): 10%; Percent inhibition of LMR20 cell proliferation (LMR20 cells; CSS + R1881, ASO 1.0 μM): 19%; Percent inhibition of LMR20 cell proliferation (LMR20 cells; CSS + R1881, ASO 5.0 μM): 54%; Percent inhibition of LMR20 cell proliferation (LMR20 cells; CSS, ASO 0.04 μM): 0%; Percent inhibition of LMR20 cell proliferation (LMR20 cells; CSS, ASO 0.20 μM): 1%; Percent inhibition of LMR20 cell proliferation (LMR20 cells; CSS, ASO 1.0 μM): 2%; Percent inhibition of LMR20 cell proliferation (LMR20 cells; CSS, ASO 5.0 μM): 16%; AR mRNA levels in LMR20 cells (AR mRNA [5]): did not alter AR mRNA levels; Percent inhibition of AR full-length mRNA (AR mRNA [3]; dose 1.00 μM): 0%; Percent inhibition of AR full-length mRNA (AR mRNA [3]; dose 5.00 μM): 0%; Percent inhibition of cell proliferation (C4-2B cells [4]; dose 0.04 μM): 0%; Percent inhibition of cell proliferation (C4-2B cells [4]; dose 0.20 μM): 10%; Percent inhibition of cell proliferation (C4-2B cells [4]; dose 1.00 μM): 21%; Percent inhibition of cell proliferation (C4-2B cells [4]; dose 5.00 μM): 30%
